Assay results: ChEMBL document CHEMBL3044774, “Synthesis of D-glucosamine quaternary ammonium derivatives and evaluation of their antifungal activity together with aminodeoxyglucose derivatives against two wood fungi Coriolus versicolor and Poria placenta: structure-activity relationships” (2011)

Key:
Type in all cases: functional
[1] = system: Poria; experiment: Antifungal activity against Poria placenta FPRL 280 assessed as mycelial growth inhibition at 0.75 x 10^-4 mol/ml after 9 days relative to control
[2] = system: Trametes versicolor; experiment: Antifungal activity against Trametes versicolor Quel. CTB 863-A assessed as mycelial growth inhibition at 1.5 x 10^-4 mol/ml after 9 days relative to control
[3] = system: Poria; experiment: Antifungal activity against Poria placenta FPRL 280 assessed as mycelial growth inhibition at 0.5 x 10^-4 mol/ml after 9 days relative to control
[4] = system: Trametes versicolor; experiment: Antifungal activity against Trametes versicolor Quel. CTB 863-A assessed as mycelial growth inhibition at 1 x 10^-4 mol/ml after 9 days relative to control

SMILES	growth inhibition (GI) [1] [%]	growth inhibition (GI) [2] [%]	growth inhibition (GI) [3] [%]	growth inhibition (GI) [4] [%]
CC(=O)OC[C@H]1OC(OC(C)=O)[C@H](N(C)C)[C@@H](OC(C)=O)[C@@H]1OC(C)=O (stereo partly specified)	48.2	34.9		
CC[N+](C)(C)[C@H]1C(OC(C)=O)O[C@H](COC(C)=O)[C@@H](OC(C)=O)[C@@H]1OC(C)=O (stereo partly specified)	80	74.9		
CCN[C@H]1C(O)O[C@H](CO)[C@@H](O)[C@@H]1O (stereo partly specified)	47.1	40.4		
CC(=O)OC[C@H]1OC(OC(C)=O)[C@H]([N+](C)(C)C2CCCCC2)[C@@H](OC(C)=O)[C@@H]1OC(C)=O (stereo partly specified)	100	100		
CCN[C@H]1C(OC(C)=O)O[C@H](COC(C)=O)[C@@H](OC(C)=O)[C@@H]1OC(C)=O (stereo partly specified)		53.7		
N[C@H]1[C@H](O)[C@@H](CO)OC(O)[C@@H]1O (stereo partly specified)	26.7	14.9	18.4	0
NC[C@H]1O[C@@H](O)[C@H](O)[C@@H](O)[C@@H]1O	31.7	19.2	27.1	6.7
CC[N+](C)(C)[C@H]1C(O)O[C@H](CO)[C@@H](O)[C@@H]1O.O=S(=O)([O-])O (stereo partly specified)	77.2	64.4		
N[C@@H]1O[C@H](CO)[C@@H](O)[C@H](O)[C@H]1O	100	82.4	81.6	50.6
CC(=O)OC[C@H]1OC(OC(C)=O)[C@H](NC2CCCCC2)[C@@H](OC(C)=O)[C@@H]1OC(C)=O (stereo partly specified)	91.8	87.9		
N[C@H]1C(O)O[C@H](CO)[C@@H](O)[C@@H]1O (stereo partly specified) [GLUCOSAMINE]	25.9	11	10.2	0
CC(=O)OC[C@H]1OC(OC(C)=O)[C@H]([N+](C)(C)C)[C@@H](OC(C)=O)[C@@H]1OC(C)=O (stereo partly specified)	74.1	45.9		
